Results published in publication PMC3967968 (Molecular Biology of the Cell, 2014).

T1: MBP-fused Drosophila EB1 (Drosophila, UniProt Q9XZ57 1-290)
T1 sequence (looked up): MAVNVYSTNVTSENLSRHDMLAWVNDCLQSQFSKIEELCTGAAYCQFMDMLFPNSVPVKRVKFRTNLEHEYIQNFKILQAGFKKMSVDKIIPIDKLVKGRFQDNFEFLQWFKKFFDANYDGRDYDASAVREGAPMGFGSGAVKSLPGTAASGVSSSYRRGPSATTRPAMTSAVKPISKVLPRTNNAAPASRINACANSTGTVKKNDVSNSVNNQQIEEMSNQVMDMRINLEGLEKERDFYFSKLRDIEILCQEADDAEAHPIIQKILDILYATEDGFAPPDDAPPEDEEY


Experiments:
[1] = target: human EB1; conditions: read-out: Kd with human EB1, ref Honnappa et al. 2005; cited from earlier work
[2] = target: T1, MBP-fused Drosophila EB1; test: ITC

Kd [2] | Molecule | Kd [1]
– | adenomatous polyposis coli protein: native human EB1-interacting protein | ~5000 nM
~570 nM | RTRGRSRIPRWVGRRG [aptamer Perfect peptide] | –
